The values that follow come from patent publication US7947854B2, “Bis-cationic compounds and use thereof” (The University of Sydney, priority 2003, dated 2011).

Read-outs that look alike come from different tables or passages of the source. Marks after values point to notes of the source that are not given here.

The subject of assay [1] is secreted phospholipase B (PLB activity). As to the kind of experiment: Radiometric assay, secreted PLB activity. The class given is biochemical, Cryptococcus neoformans H99. Conditions: for PLB, percentage inhibition of activity: Secretory Cryptococcal H99 Phospholipase; for % Inhibition PLB, Secretory Enzyme: pH 4. In outline: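 Secreted enzyme was taken from cell-free supernatant of Cryptococcus isolate H99 cells incubated 24 h at 37° C. Reactions at 37° C, pH 4.0 imidazole acetate, used 800 μM DPPC with [14C]-dipalmitoyl PC and 1 μg protein for 22 min. PLB was measured as radiolabelled PC loss by TLC, with inhibition expressed versus inhibitor-free control; compounds were tested at 25 and 250 μM, then 2.5 and 0.25 μM.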

Assay [2] relates to Cryptococcus neoformans ATCC 90112. As to the kind of experiment: Antifungal susceptibility testing, microdilution MIC. The class given is cell-based. Conditions: Cryptococcus neoformans, ATCC90112. In outline:
(§1)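 Standard microdilution method, run in duplicate, using serial dilutions of cationic compounds.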

Assay [3] concerns Candida albicans ATCC 10231. The description is as above. The class given is cell-based. Conditions: Candida albicans, ATCC10231. In outline:
as §1

[4] abbreviates: Table 7, read-out: MIC (μM) Crypto. (ATCC 90112).
Setting [5] is: Table 7, read-out: MIC (μM) C. alb. (10231).
[6] abbreviates: Table 6, no visible growth after 72 h at 35° C., read-out: MIC C. neof. ATCC 90112.
Setting [7] is: Table 6, no visible growth after 48 h at 35° C., read-out: MIC C. albicans ATCC 10231.

In general, MIC refers to the least concentration at which growth counts as inhibited. As for `CCCC[N+](CCCC)(CCCC)CCCCCCCCCCCC[N+](CCCC)(CCCC)CCCC` [1,12-Bis-(tributylammonium)dodecane dichloride], the “PLB assay (% inhibition)” value in assay [1] (0.25 μM) is 0%; in assay [1] (2.5 μM) it was 6%; in assay [1] (6.7 μM) it was 35%; in assay [1] (12.5 μM), 56%; in assay [1] (25 μM), 65%; in assay [1] (250 μM) it was 85%. The MIC is 2.5 µM in assay [2] (setting [4]) and 5.5 µM in assay [3] (setting [5]).
Turning to `CCCC[P+](CCCC)(CCCC)CCCCCCCCCCCC[P+](CCCC)(CCCC)CCCC` [Compound 1, 1,12-bis(tributylphosphonium)dodecane dibromide], the “PLB assay (% inhibition)” value in assay [1] (0.25 μM) worked out at 0%; in assay [1] (2.5 μM) it was 0%; in assay [1] (25 μM) it was 35%; in assay [1] (250 μM), 55%. The “PLB, percentage inhibition of activity” value in assay [1] (0.25 μM) is 0%; in assay [1] (2.5 μM) it was 0%; in assay [1] (25 μM), 35%; in assay [1] (250 μM), 55%. Further, the “% Inhibition PLB, Secretory Enzyme” value in assay [1] (0.25 μM) is 0%; in assay [1] (2.5 μM) it was 0%; in assay [1] (25 μM) it was 35.2* %; in assay [1] (250 μM), 55.0* %. The MIC in assay [2] (setting [6]) stood at 2.5 µM; in assay [2] (setting [4]), 2.5 µM; in assay [3] (setting [7]), 8.8 µM; in assay [3] (setting [5]) it was 8.8 µM.
Consider `CCCC[N+](CCCC)(CCCC)CCCCCCCCCCCC[N+](CCCC)(CCCC)CCCC` [Compound 3, 1,12-bis(tributylammonium)do-decane dibromide], for which the “PLB, percentage inhibition of activity” value in assay [1] (0.25 μM) worked out at 20%; in assay [1] (2.5 μM), 65%; in assay [1] (25 μM), 80%; in assay [1] (250 μM), 85%. Besides, the results for the minimum inhibitory concentration (MIC) in assay [2] (setting [6]) and in assay [3] (setting [7]) were 2.5 µM and 11 µM, respectively.
